Source: US20090105197A1 (priority 2001, published 2009)
Values joined by “and” are separate entries in the source; they are usually repeats but may differ in a detail not shown here. Equal values may be shown once.

Key:
[1] = tested on: acetic acid-induced writhing in mice; assay: animal or person; format: in vivo, Kunming mice; conditions: for ID95 (95% inhibition dose) of aspirin: i.m.
[2] = tested on: heat-induced tail flick in mice; conditions: mouse, in vivo
[3] = Mus musculus, im, read-out: inhibition Rate (%)
[4] = combined with small doses of TTX (1/25 and 1/50 LD50) versus aspirin alone

SMILES | Average Writhing movements ([1]; ASP alone 25 mg/kg i.m.) | Average Writhing movements ([1]; ASP alone 50 mg/kg i.m.) | Average Writhing movements ([1]; ASP alone 100 mg/kg i.m.) | Average Writhing movements ([1]; ASP alone 150 mg/kg i.m.) | Average Writhing movements ([1]; ASP alone 200 mg/kg i.m.) | inhibition at 25 mg/kg [1, 3] | inhibition at 50 mg/kg [1, 3] | inhibition at 100 mg/kg [1, 3] | inhibition at 150 mg/kg [1, 3] | inhibition at 200 mg/kg [1, 3] | ID95 (95% inhibition dose) of aspirin ([1]; aspirin alone) | ID95 (95% inhibition dose) of aspirin ([1]; aspirin alone, listed as aspirin) | ID95 (95% inhibition dose) of aspirin ([1]; aspirin combined with TTX 0.39 μg/kg (1/50 LD50)) | ID95 (95% inhibition dose) of aspirin ([1]; aspirin combined with TTX 0.79 μg/kg (1/25 LD50)) | reduction of ID50 of aspirin [1, 4] | reduction of ID95 of aspirin [1, 4] | Average Writhing movements ([1]; mouse, in vivo, 3 mg/kg) | Average Writhing movements ([1]; mouse, in vivo, ip, 3 mg/kg) | analgesic effect with escalating doses [2]
CC(=O)Oc1ccccc1C(=O)O [ASP, Aspirin] | 25.1 ± 14.5 | 19.3 ± 13.8 | 12.0 ± 9.2 | 5.2 ± 5.7 | 2.7 ± 1.9 | 35.6% | 50.6% | 69.3% | 86.6% | 93.2% | 361.8 mg/kg | 361.8 mg/kg and 361.77 mg/kg | 154.3 mg/kg and 154.33 mg/kg | 94.5 mg/kg and 94.47 mg/kg | exceeded two folds | exceeded two folds |  |  | 
NC1=N[C@H](O)[C@H]2[C@H]3O[C@]4(O)O[C@@H]([C@@H](O)[C@@]2(N1)[C@@H]4O)[C@]3(O)CO [TTX, Tetrodotoxin] |  |  |  |  |  |  |  |  |  |  |  |  |  |  |  |  | 28.2 ± 9.65 | 23.2 ± 11.7 | did not increase markedly with escalating doses
